In patent US8431577B2, “Crystalline form of eszopiclone, composition, preparation and uses thereof” (Tianjin Tasly Group Co., Ltd., priority 2008, dated 2013):
Like-named read-outs stand apart in the source and are kept apart here.

Experiments:
Male Long-Evans rats = assay: Test of spontaneous activity; type: in vivo, rat; conditions: 10 mg/Kg body weight
Protocol: Male Long-Evans rats (weighing 250˜275 g) were adopted, divided into 3 groups, and fed in a 12-hour light-dark cycle. After one week of feeding, the experiment was carried out.
Horizontal activity of rats had been observed under an open circumstance to measure a total spontaneous activity. Respectively, all animals were placed into 8 black light-proof rooms, and their spontaneous activities were monitored by an infrared sensor mounted on the wall at equal intervals to record once every 10 minutes for 120 minutes.
The crystalline form of S-zopiclone was administrated to the animals at a dose of 10 mg/Kg body weight. 30˜60 minutes after administration, the inhibitory effect on the locomotor ability reached a peak, and disappeared after 2 hours.

[1] = for Content (%) / Related substances (%) Levozopiclone / Related substances (%) Other impurities: Strong light exposure (4500±500 Lx)
Excerpt: The specimens were sampled on the 5th and 10th day respectively to measure their stability in accordance with the key stability-relevant items.

[2] = Accelerated stability test; conditions: 40±2° C., RH 75±5%
Protocol: The crystalline form of S-zopiclone was packaged in packages simulated the commercial ones, and placed in a thermostat container (temperature: 40±2° C., RH:75±5%) for 6 months. The specimens were sampled on the 1st, 2nd, 3rd and 6th month respectively to measure their stability in accordance with the key stability-relevant items.

[3] = Long-term reserved-sample stability test; type: physicochemical; conditions: room temperature
Excerpt: The crystalline form of S-zopiclone was packaged in packages simulated the commercial ones, and placed at room temperature. The specimens were sampled on the 3rd, 6th, 9th, 12th, 18th, 24th, and 36th month respectively to measure their stability in accordance with the key stability-relevant items.

[4] = Crystal transformation under the stability tests (X-ray diffraction); type: physicochemical; conditions: under all stability tests (60° C., RH 92.5%, strong light, accelerated, long-term)
[5] = Pharmacokinetic study of single oral administration in healthy volunteers; type: in vivo, human
Protocol: Evaluation of pharmacokinetics: according to the results of phase I clinical tolerance trial and the pre-designed therapeutic dose of phase II clinical trial, a high dose of 11. 25 mg/kg BW (body weight) can be tolerated by all volunteers in tolerance test, three different dose groups had been set as follows: low dose group, moderate dose group and high dose group were 3, 6 and 12 mg/kg BW, respectively. Three-way crossover Latin square design was used. All subjects were randomly divided into 3 test groups, and the tested drug at different doses was administrated to the subjects when performing each test. Thus, after 3 tests, each subject had been administrated with the testing drug at high, moderate and low dose by following the Latin square design procedure. The interval between two tests was 2 weeks.
(§1) After a single oral administration of the tested drug, 6 ml anticoagulant heparin venous blood samples were collected at 0th (immediately before administration), 15th minute, 30th minute, 45th minute, 60th minute, 1.5th hour, 2nd hour, 3rd hour, 4th hour, 6th hour, 8th hour, 12th hour, 16th hour and 24th hour respectively to determine the concentration of S-zopiclone. By HPLC, the plasma drug concentration of each subject had been determined at different time-points to give a concentration-time curve. The main pharmacokinetic parameters of the subjects had been calculated, including AUC, Cmax, Tmax, AUC0˜α, AUC0-t and t1/2, etc.
(§2) The crystalline form of S-zopiclone was prepared into coated tablets (3 mg S-zopiclone/tablet) in accordance with Example 1 and Example 9, single orally administrated.
(§3) Pharmacokinetic indices: the plasma drug concentration had been determined immediately before administration and at different time-points after administration of the drug to give a concentration-time curve. The main pharmacokinetic parameters had been calculated, including Cmax, Tmax, AUC0˜α, AUC0-t and t1/2, etc.
(§4) Pharmacokinetic: 3P97 statistical analysis software had been applied to calculate the main pharmacokinetic parameters.

[6] = Pharmacokinetic study pre and post eating in healthy volunteers; type: in vivo, human; conditions: single oral
Protocol: In addition, the effect of eating food on in vivo metabolism of the drug had been evaluated. 8 subjects were randomly divided into 2 groups. In 2 tests, the subjects of each group received the drug at the same dose (6 mg) in the cases of fasting and 5 minutes after taking standard diet. The interval between two tests was 2 weeks.
as §1, §2, §3, §4

[7] = 3 mg single oral administration
[8] = 6 mg single oral administration
[9] = 12 mg single oral administration
[10] = 6 mg (eating), 5 minutes after standard diet

CN1CCN(C(=O)O[C@H]2c3nccnc3C(=O)N2c2ccc(Cl)cn2)CC1 [crystalline form of S-zopiclone, (+)-(S)-(4-methylpiperazine-1-carboxylate)(6-(5-chloropyridinyl-2-yl)-7-carbonyl-6,7-dihydro-5-H-pyrrolo[3,4-b]pyrazin-5-yl ester)]
time after which inhibitory effect on the locomotor ability disappeared (Male Long-Evans rats): 2 h
stability (character, melting point, related substances versus 0th day) ([1]; 10 days of strong light exposure (4500±500 Lx)): remained stable
Content (%) ([1]; day 0): 100.06%
Related substances (%) Levozopiclone ([1]; day 0): 0.06%
Related substances (%) Other impurities ([1]; day 0): 0.09%
Content (%) ([1]; day 5): 99.77%
Related substances (%) Levozopiclone ([1]; day 5): 0.08%
Related substances (%) Other impurities ([1]; day 5): 0.10%
Content (%) ([1]; day 10): 100.02%
Related substances (%) Levozopiclone ([1]; day 10): 0.07%
Related substances (%) Other impurities ([1]; day 10): 0.11%
stability (character, melting point, related substances versus 0th day) ([2]; 6 months of accelerated test): remained stable
Content (%) ([2]; month 0): 100.06%
Related substances (%) Levozopiclone ([2]; month 0): 0.06%
Related substances (%) Other impurities ([2]; month 0): 0.09%
Content (%) ([2]; month 1): 100.13%
Related substances (%) Levozopiclone ([2]; month 1): 0.07%
Related substances (%) Other impurities ([2]; month 1): 0.10%
Content (%) ([2]; month 2): 100.02%
Related substances (%) Levozopiclone ([2]; month 2): 0.07%
Related substances (%) Other impurities ([2]; month 2): 0.12%
Content (%) ([2]; month 3): 99.91%
Related substances (%) Levozopiclone ([2]; month 3): 0.05%
Related substances (%) Other impurities ([2]; month 3): 0.12%
Content (%) ([2]; month 6): 99.73%
Related substances (%) Levozopiclone ([2]; month 6): 0.06%
Related substances (%) Other impurities ([2]; month 6): 0.09%
stability (character, melting point, related substances versus 0th day) ([3]; long-term reserved-sample test, up to 36 months): remained stable
Content (%) ([3]; month 0): 100.06%
Related substances (%) Levozopiclone ([3]; month 0): 0.06%
Related substances (%) Other impurities ([3]; month 0): 0.09%
Content (%) ([3]; month 3): 100.3%
Related substances (%) Levozopiclone ([3]; month 3): 0.06%
Related substances (%) Other impurities ([3]; month 3): 0.11%
Content (%) ([3]; month 6): 100.21%
Related substances (%) Levozopiclone ([3]; month 6): 0.06%
Related substances (%) Other impurities ([3]; month 6): 0.14%
Content (%) ([3]; month 9): 100.16%
Related substances (%) Levozopiclone ([3]; month 9): 0.04%
Related substances (%) Other impurities ([3]; month 9): 0.14%
Content (%) ([3]; month 12): 100.08%
Related substances (%) Levozopiclone ([3]; month 12): 0.06%
Related substances (%) Other impurities ([3]; month 12): 0.14%
Content (%) ([3]; month 18): 100.12%
Related substances (%) Levozopiclone ([3]; month 18): 0.07%
Related substances (%) Other impurities ([3]; month 18): 0.17%
Content (%) ([3]; month 24): 99.80%
Related substances (%) Levozopiclone ([3]; month 24): 0.07%
Related substances (%) Other impurities ([3]; month 24): 0.18%
Content (%) ([3]; month 36): 100.06%
Related substances (%) Levozopiclone ([3]; month 36): 0.07%
Related substances (%) Other impurities ([3]; month 36): 0.20%
phenomenon of crystal transformation [4]: had not been observed
AUC0-∞ [5, 7]: 259.66 ± 92.58 µg/h/L
Cmax [5, 7]: 33.96 ± 8.63 ng/mL
Tmax [5, 7]: 1.50 ± 0.66 h
plasma clearance [5, 7]: 14.10 ± 4.5 L/h
t1/2 [5, 7]: 6.98 ± 0.99 h
AUC0-∞ [5, 8]: 404.21 ± 73.32 µg/h/L
Cmax [5, 8]: 60.94 ± 11.44 ng/mL
Tmax [5, 8]: 1.28 ± 0.43 h
plasma clearance [5, 8]: 15.80 ± 3.0 L/h
t1/2 [5, 8]: 8.20 ± 6.14 h
AUC0-∞ [5, 9]: 1291.26 ± 426.68 µg/h/L
Cmax [5, 9]: 182.72 ± 67.44 ng/mL
Tmax [5, 9]: 1.58 ± 0.40 h
plasma clearance [5, 9]: 10.90 ± 5.00 L/h
t1/2 [5, 9]: 8.06 ± 2.82 h
AUC0-∞ [6, 10]: 284.00 ± 88.36 µg/h/L
Cmax [6, 10]: 62.60 ± 18.95 ng/mL
Tmax [6, 10]: 1.75 ± 0.89 h
plasma clearance [6, 10]: 21.4 ± 7.4 L/h
t1/2 [6, 10]: 6.75 ± 1.49 h
AUC0-∞ ([6]; 6 mg (fasting)): 335.73 ± 145.57 µg/h/L
Cmax ([6]; 6 mg (fasting)): 60.69 ± 11.43 ng/mL
Tmax ([6]; 6 mg (fasting)): 1.31 ± 0.44 h
plasma clearance ([6]; 6 mg (fasting)): 16.00 ± 3.3 L/h
t1/2 ([6]; 6 mg (fasting)): 7.17 ± 2.69 h
